Reference: patent US10906873B2, “Substituted cyclic amides as herbicides” (FMC Corporation, priority 2015, dated 2021)

Experiments:
Format in all cases: in vivo
[1] = tested on: barnyardgrass (Echinochloa crus-galli); experiment: Test A preemergence, barnyardgrass; conditions: 0 to 100 scale
Method in brief: (§1)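 Scores run from 0, no effect, to 100, complete control, assigned visually after roughly 10 d in the greenhouse. Preemergence treatment is a directed spray onto sown loam–sand soil; postemergence treatment targets plants 2 to 10 cm tall.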

[2] = tested on: ragweed (common ragweed, Ambrosia elatior); experiment: Test A postemergence, ragweed; conditions: 0 to 100 scale
Method in brief: as §1

[3] = tested on: ducksalad (Heteranthera limosa); experiment: Test B flooded paddy test, ducksalad; conditions: Flood, 250 g ai/ha; scale of 0 to 100 where 0 is no effect and 100 is complete control; 13 to 15 d
Method in brief: (§2)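 Plants at the 2-leaf stage were flooded to 3 cm above soil, and test compounds were applied directly into the paddy water, which was held at that depth throughout. After 13 to 15 d in a greenhouse, injury was rated visually against untreated controls on a 0–100 scale (0 no effect, 100 complete control).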

kochia (Kochia scoparia) [4] = experiment: Test A postemergence, kochia; conditions: 0 to 100 scale
Method in brief: as §1

[5] = tested on: sedge, umbrella (small-flower umbrella sedge, Cyperus difformis); experiment: Test B flooded paddy test, sedge, umbrella; conditions: Flood, 250 g ai/ha; scale of 0 to 100 where 0 is no effect and 100 is complete control; 13 to 15 d
Method in brief: as §2

[6] = tested on: foxtail, giant (giant foxtail, Setaria faberii); experiment: Test A postemergence, foxtail, giant; conditions: 0 to 100 scale
Method in brief: as §1

kochia (Kochia scoparia) [7] = experiment: Test A preemergence, kochia; conditions: 0 to 100 scale
Method in brief: as §1

[8] = tested on: wheat (Triticum aestivum); experiment: Test A postemergence, wheat; conditions: 0 to 100 scale
Method in brief: as §1

[9] = tested on: ryegrass, It. (Italian ryegrass, Lolium multiflorum); experiment: Test A preemergence, ryegrass, It.; conditions: 0 to 100 scale
Method in brief: as §1

[10] = tested on: ryegrass, It. (Italian ryegrass, Lolium multiflorum); experiment: Test A postemergence, ryegrass, It.; conditions: 0 to 100 scale
Method in brief: as §1

[11] = tested on: pigweed (Amaranthus retroflexus); experiment: Test A postemergence, pigweed; conditions: 0 to 100 scale
Method in brief: as §1

[12] = tested on: foxtail, giant (giant foxtail, Setaria faberii); experiment: Test A preemergence, foxtail, giant; conditions: 0 to 100 scale
Method in brief: as §1

[13] = tested on: pigweed (Amaranthus retroflexus); experiment: Test A preemergence, pigweed; conditions: 0 to 100 scale
Method in brief: as §1

[14] = tested on: blackgrass (Alopecurus myosuroides); experiment: Test A postemergence, blackgrass; conditions: 0 to 100 scale
Method in brief: as §1

corn (Zea mays) = experiment: Test A postemergence, corn; conditions: 0 to 100 scale
Method in brief: as §1

rice (Oryza sativa) = experiment: Test B flooded paddy test, rice; conditions: Flood, 250 g ai/ha; scale of 0 to 100 where 0 is no effect and 100 is complete control; 13 to 15 d
Method in brief: as §2

[15] = tested on: galium (catchweed bedstraw, Galium aparine); experiment: Test A postemergence, galium; conditions: 0 to 100 scale
Method in brief: as §1

[16] = tested on: ragweed (common ragweed, Ambrosia elatior); experiment: Test A preemergence, ragweed; conditions: 0 to 100 scale
Method in brief: as §1

[17] = tested on: barnyardgrass (Echinochloa crus-galli); experiment: Test B flooded paddy test, barnyardgrass; conditions: Flood, 250 g ai/ha; scale of 0 to 100 where 0 is no effect and 100 is complete control; 13 to 15 d
Method in brief: as §2

[18] = tested on: barnyardgrass (Echinochloa crus-galli); experiment: Test A postemergence, barnyardgrass; conditions: 0 to 100 scale
Method in brief: as §1

Row | SMILES | Plant response rating, Barnyardgrass ([1]; 125 g ai/ha) | Plant response rating, Barnyardgrass ([1]; 500 g ai/ha) | Plant response rating, Ragweed ([2]; 125 g ai/ha) | Plant response rating, Ragweed ([2]; 500 g ai/ha) | Plant response rating, Ducksalad [3] | Plant response rating, Kochia (kochia (Kochia scoparia) [4]; 125 g ai/ha) | Plant response rating, Kochia (kochia (Kochia scoparia) [4]; 500 g ai/ha) | Plant response rating, Sedge, Umbrella [5] | Plant response rating, Foxtail, Giant ([6]; 125 g ai/ha) | Plant response rating, Foxtail, Giant ([6]; 500 g ai/ha) | Plant response rating, Kochia (kochia (Kochia scoparia) [7]; 125 g ai/ha) | Plant response rating, Kochia (kochia (Kochia scoparia) [7]; 500 g ai/ha) | Plant response rating, Wheat ([8]; 125 g ai/ha) | Plant response rating, Wheat ([8]; 500 g ai/ha) | Plant response rating, Ryegrass, It. ([9]; 125 g ai/ha) | Plant response rating, Ryegrass, It. ([9]; 500 g ai/ha) | Plant response rating, Ryegrass, It. ([10]; 125 g ai/ha) | Plant response rating, Ryegrass, It. ([10]; 500 g ai/ha) | Plant response rating, Pigweed ([11]; 125 g ai/ha) | Plant response rating, Pigweed ([11]; 500 g ai/ha) | also measured
1 | Cc1cccc(C#CC2CNC(=O)C2C(=O)Nc2ccccc2F)c1 (stereo not drawn) [Compound 21] | 20 | 80 | 0 | 0 | 40 | 0 | 0 | 0 | 0 | 20 | 0 | 0 | 0 | 0 | 0 | 20 | 0 | 0 | 0 | 0 | Plant response rating, Foxtail, Giant ([12]; 125 g ai/ha): 0; Plant response rating, Foxtail, Giant ([12]; 500 g ai/ha): 0; Plant response rating, Pigweed ([13]; 125 g ai/ha): 0; Plant response rating, Pigweed ([13]; 500 g ai/ha): 0; Plant response rating, Blackgrass ([14]; 125 g ai/ha): 0; Plant response rating, Blackgrass ([14]; 500 g ai/ha): 0; Plant response rating, Corn (corn (Zea mays); 125 g ai/ha): 0; Plant response rating, Corn (corn (Zea mays); 500 g ai/ha): 0; Plant response rating, Rice (rice (Oryza sativa)): 0; Plant response rating, Galium ([15]; 125 g ai/ha): 0; Plant response rating, Galium ([15]; 500 g ai/ha): 0; Plant response rating, Ragweed ([16]; 125 g ai/ha): 0; Plant response rating, Ragweed ([16]; 500 g ai/ha): 0; Plant response rating, Barnyardgrass [17]: 0; Plant response rating, Barnyardgrass ([18]; 125 g ai/ha): 0; Plant response rating, Barnyardgrass ([18]; 500 g ai/ha): 50
2 | Cc1cccc(C#CC2CNC(=O)C2C(=O)Nc2cccc(F)c2F)c1 (stereo not drawn) [Compound 22] | 60 | 80 | 0 | 0 | 70 | 0 | 0 | 0 | 20 | 50 | 0 | 20 | 0 | 0 | 0 | 0 | 0 | 0 | 0 | 0 | Plant response rating, Foxtail, Giant ([12]; 125 g ai/ha): 50; Plant response rating, Foxtail, Giant ([12]; 500 g ai/ha): 70; Plant response rating, Pigweed ([13]; 125 g ai/ha): 0; Plant response rating, Pigweed ([13]; 500 g ai/ha): 0; Plant response rating, Blackgrass ([14]; 125 g ai/ha): 0; Plant response rating, Blackgrass ([14]; 500 g ai/ha): 0; Plant response rating, Corn (corn (Zea mays); 125 g ai/ha): 0; Plant response rating, Corn (corn (Zea mays); 500 g ai/ha): 20; Plant response rating, Rice (rice (Oryza sativa)): 0; Plant response rating, Galium ([15]; 125 g ai/ha): 0; Plant response rating, Galium ([15]; 500 g ai/ha): 20; Plant response rating, Ragweed ([16]; 125 g ai/ha): 0; Plant response rating, Ragweed ([16]; 500 g ai/ha): 0; Plant response rating, Barnyardgrass [17]: 0; Plant response rating, Barnyardgrass ([18]; 125 g ai/ha): 40; Plant response rating, Barnyardgrass ([18]; 500 g ai/ha): 70
3 | Cc1cccc(C#CC2CNC(=O)C2C(=O)Nc2ccc(F)c(F)c2F)c1 (stereo not drawn) [Compound 23] | 60 | 80 | 0 | 0 | 0 | 0 | 20 | 0 | 20 | 50 | 0 | 0 | 0 | 0 | 0 | 0 | 0 | 0 | 0 | 0 | Plant response rating, Foxtail, Giant ([12]; 125 g ai/ha): 40; Plant response rating, Foxtail, Giant ([12]; 500 g ai/ha): 80; Plant response rating, Pigweed ([13]; 125 g ai/ha): 0; Plant response rating, Pigweed ([13]; 500 g ai/ha): 0; Plant response rating, Blackgrass ([14]; 125 g ai/ha): 0; Plant response rating, Blackgrass ([14]; 500 g ai/ha): 0; Plant response rating, Corn (corn (Zea mays); 125 g ai/ha): 0; Plant response rating, Corn (corn (Zea mays); 500 g ai/ha): 0; Plant response rating, Rice (rice (Oryza sativa)): 0; Plant response rating, Galium ([15]; 125 g ai/ha): 0; Plant response rating, Galium ([15]; 500 g ai/ha): 20; Plant response rating, Ragweed ([16]; 125 g ai/ha): 0; Plant response rating, Ragweed ([16]; 500 g ai/ha): 0; Plant response rating, Barnyardgrass [17]: 0; Plant response rating, Barnyardgrass ([18]; 125 g ai/ha): 20; Plant response rating, Barnyardgrass ([18]; 500 g ai/ha): 50
4 | O=C1NCC(C#Cc2cccc(Cl)c2)C1C(=O)Nc1ccccc1F (stereo not drawn) [Compound 25, 4-[2-(3-chlorophenyl)ethynyl]N-(2-fluorophenyl)-2-oxo-3-pyrrolidinecarboxamide] | 60 | 90 | 0 | 0 | 85 | 0 | 0 | 0 | 30 | 80 | 0 | 60 | 0 | 0 | 0 | 0 | 0 | 0 | 0 | 20 | Plant response rating, Foxtail, Giant ([12]; 125 g ai/ha): 40; Plant response rating, Foxtail, Giant ([12]; 500 g ai/ha): 90; Plant response rating, Pigweed ([13]; 125 g ai/ha): 0; Plant response rating, Pigweed ([13]; 500 g ai/ha): 50; Plant response rating, Blackgrass ([14]; 125 g ai/ha): 0; Plant response rating, Blackgrass ([14]; 500 g ai/ha): 0; Plant response rating, Corn (corn (Zea mays); 125 g ai/ha): 0; Plant response rating, Corn (corn (Zea mays); 500 g ai/ha): 0; Plant response rating, Rice (rice (Oryza sativa)): 20; Plant response rating, Galium ([15]; 125 g ai/ha): 0; Plant response rating, Galium ([15]; 500 g ai/ha): 60; Plant response rating, Ragweed ([16]; 125 g ai/ha): 0; Plant response rating, Ragweed ([16]; 500 g ai/ha): 0; Plant response rating, Barnyardgrass [17]: 0; Plant response rating, Barnyardgrass ([18]; 125 g ai/ha): 40; Plant response rating, Barnyardgrass ([18]; 500 g ai/ha): 70
